These results are taken from patent US10494364B2, “Cathepsin K inhibitors and application thereof” (SUNSHINE LAKE PHARMA CO., LTD., priority 2015, dated 2019).

Holding throughout (format): biochemical
The target of test [1] is human cathepsin S (Homo sapiens, UniProt P25774). Briefly: Assay of cathepsin S inhibitory activity in vitro. The conditions noted are these: IC50 against human cathepsin S; substrate Z-VVR-AMC 20 μM; 25° C.; read-out: Cat-S. Here is the method: Assay Method of Cathepsin S Inhibitory Activity In Vitro
human cathepsin S, sequence (P25774 115-331): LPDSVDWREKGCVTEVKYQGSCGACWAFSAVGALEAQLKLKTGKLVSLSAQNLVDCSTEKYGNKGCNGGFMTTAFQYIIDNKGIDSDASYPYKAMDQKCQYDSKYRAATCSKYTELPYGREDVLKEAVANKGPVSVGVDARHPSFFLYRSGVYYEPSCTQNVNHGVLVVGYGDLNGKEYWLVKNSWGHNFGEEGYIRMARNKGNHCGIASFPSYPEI
0.25 ng/L was the final concentration of Cathepsin S in the enzyme reaction, and Z-VVR-AMC with the final concentration of 20 μM was added into the reaction system as substrate, in the reaction system the test compound and enzyme had been incubated at 25° C. for 15 min.

Test [2] has as its target human cathepsin B (Homo sapiens, UniProt P07858). Briefly: Assay of cathepsin B inhibitory activity in vitro. To be noted: IC50 against human cathepsin B; substrate Z-Phe-Arg-AMC 10 μM; 25° C.; read-out: Cat-B. Here is the method: Assay Method of Cathepsin B Inhibitory Activity In Vitro
0.01 ng/μL was the final concentration of Cathepsin B in the enzyme reaction, and Z-Phe-Arg-AMC with the final concentration of 10 μM was added into the reaction system as substrate, in the reaction system the test compound and enzyme had been incubated at 25° C. for 15 min.

Test [3] addresses T1, human cathepsin K (Homo sapiens, UniProt P43235).
T1 sequence (P43235 115-329): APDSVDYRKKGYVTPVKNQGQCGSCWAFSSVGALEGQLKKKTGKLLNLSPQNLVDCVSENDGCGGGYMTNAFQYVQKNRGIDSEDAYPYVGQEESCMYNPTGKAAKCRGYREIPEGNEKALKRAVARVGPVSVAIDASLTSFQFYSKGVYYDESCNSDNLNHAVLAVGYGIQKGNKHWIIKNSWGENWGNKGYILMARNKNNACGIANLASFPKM
Briefly: Assay of cathepsin K inhibitory activity in vitro. The conditions noted are these: IC50 against human cathepsin K; substrate Z-Phe-Arg-AMC 10 μM; 25° C.; read-out: Cat-K. As to the method:
Assay Method of Cathepsin K Inhibitory Activity In Vitro
Using 45000-fold diluted cathepsin K solution and 10 μM Z-Phe-Arg-AMC as substrate, the test compound and cathepsin K solution were incubated at 25° C. for 15 min in a 15 μL reaction system according to the optimized experimental condition.

Test [4] addresses human cathepsin L (Homo sapiens, UniProt P07711). Briefly: Assay of cathepsin L inhibitory activity in vitro. The conditions noted are these: IC50 against human cathepsin L; substrate Z-Phe-Arg-AMC 10 μM; 25° C.; read-out: Cat-L. Here is the method: Assay Method of Cathepsin L Inhibitory Activity In Vitro
0.01 ng/μL was the final concentration of Cathepsin L in the enzyme reaction, and Z-Phe-Arg-AMC with the final concentration of 10 μM was added into the reaction system as substrate, in the reaction system the test compound and enzyme had been incubated at 25° C. for 15 min.

human cathepsin L, sequence (P07711 114-333): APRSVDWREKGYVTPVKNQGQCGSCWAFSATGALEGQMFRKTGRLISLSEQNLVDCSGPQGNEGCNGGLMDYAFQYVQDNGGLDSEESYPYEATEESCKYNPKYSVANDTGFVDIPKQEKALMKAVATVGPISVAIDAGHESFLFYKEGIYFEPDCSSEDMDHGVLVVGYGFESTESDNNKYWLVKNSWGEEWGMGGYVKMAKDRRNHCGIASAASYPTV

Turning to `N#CC1(NC(=O)C2(NC(=O)c3cc4ccc(-c5ccc(C6(N)COC6)cc5)cc4o3)CCCCC2)CC1` [Example 1, 6-(4-(3-aminooxetan-3-yl)phenyl)-N-(1-((1-cyanocyclopropyl)carbamoyl)cyclohexyl)benzofuran-2-carboxamide], the IC50 in test [1] amounted to 1800 nM; in test [2], 22 nM; in test [3], 0.19 nM; in test [4], 1500 nM.

Take `CS(=O)(=O)c1ccc(-c2ccc3cc(C(=O)NC4(C(=O)NC5(C#N)CC5)CCC(F)(F)CC4)oc3c2)cc1` [Example 2, N-(1-((1-cyanocyclopropyl)carbamoyl)-4,4-difluorocyclohexyl)-6-(4-(methylsulfonyl)phenyl)benzofuran-2-carboxamide]: the IC50 is 4000 nM in test [1], 880 nM in test [2], 1.37 nM in test [3] and above 10000 nM in test [4].

As to `COc1ccc(-c2ccc3cc(C(=O)NC4(C(=O)NC5(C#N)CC5)CCC(F)(F)CC4)oc3c2)cc1OC` [Example 4, N-(1-((1-cyanocyclopropyl)carbamoyl)-4,4-difluorocyclohexyl)-6-(3,4-dimethoxyphenyl)benzofuran-2-carboxamide], the IC50 in test [1] is above 10000 nM; in test [2] it was 2500 nM; in test [3], 2.1 nM; in test [4] it was above 10000 nM.

On to `CS(=O)(=O)c1ccc(-c2ccc3cc(C(=O)NC4(C(=O)NC5(C#N)CC5)CCCCC4)oc3c2)c(F)c1` [Example 5, N-(1-((1-cyanocyclopropyl)carbamoyl)cyclohexyl)-6-(2-fluoro-4-(methylsulfonyl)phenyl)benzofuran-2-carboxamide], for which the IC50 was 1600 nM in test [1], 78 nM in test [2], 1.1 nM in test [3] and above 10000 nM in test [4].

Turning to `N#CC1(NC(=O)C2(NC(=O)c3cc4ccc(-c5ccc(C(O)CO)cc5)cc4o3)CCC(F)(F)CC2)CC1` (stereo not drawn) [Example 6, N-(1-((1-cyanocyclopropyl)carbamoyl)-4,4-difluorocyclohexyl)-6-(4-(1,2-dihydroxyethyl)phenyl)benzofuran-2-carboxamide], the IC50 is 620 nM in test [1], 750 nM in test [2], 3.1 nM in test [3] and above 10000 nM in test [4].

Turning to `N#CC1(NC(=O)C2(NC(=O)c3cc4ccc(-c5ccc(C(O)C(F)F)cc5)cc4o3)CCCCC2)CC1` (stereo not drawn) [Example 7, N-(1-((1-cyanocyclopropyl)carbamoyl)cyclohexyl)-6-(4-(2,2-difluoro-1-hydroxyethyl)phenyl)benzofuran-2-carboxamide], the IC50 was 2100 nM in test [1], 103 nM in test [2], 0.62 nM in test [3] and above 10000 nM in test [4].

Consider `N#CC1(NC(=O)C2(NC(=O)c3cc4ccc(-c5ccc(C6(O)CCC6)cc5)cc4o3)CCCCC2)CC1` [Example 9, N-(1-((1-cyanocyclopropyl)carbamoyl)cyclohexyl)-6-(4-(1-hydroxycyclobutyl)phenyl)benzofuran-2-carboxamide], for which the IC50 is 3500 nM in test [1], 410 nM in test [2], 2.7 nM in test [3] and above 10000 nM in test [4].

As for `N#CC1(NC(=O)C2(NC(=O)c3cc4ccc(-c5ccc(C6(N)COC6)cc5)cc4o3)CCC(F)(F)CC2)CC1` [Example 14, 6-(4-(3-aminooxetan-3-yl)phenyl)-N-(1-((1-cyanocyclopropyl)carbamoyl)-4,4-difluorocyclohexyl)benzofuran-2-carboxamide], the IC50 was determined as 260 nM in test [1], 86 nM in test [2], 0.38 nM in test [3] and 3100 nM in test [4].

On to `N#CC1(NC(=O)C2(NC(=O)c3cc4ccc(-c5ccc(C(O)C6(O)CC6)cc5)cc4o3)CCC(F)(F)CC2)CC1` (stereo not drawn) [Example 15, N-(1-((1-cyanocyclopropyl)carbamoyl)-4,4-difluorocyclohexyl)-6-(4-(hydroxy(1-hydroxycyclopropyl)methyl)phenyl)benzofuran-2-carboxamide], for which the IC50 in test [1] was 620 nM; in test [2], 750 nM; in test [3], 3.1 nM; in test [4] it was above 10000 nM.

For the compound `N#CC1(NC(=O)C2(NC(=O)c3cc4ccc(-c5ccc(OC6COC6)cc5)cc4o3)CCC(F)(F)CC2)CC1` [Example 19, N-(1-((1-cyanocyclopropyl)carbamoyl)-4,4-difluorocyclohexyl)-6-(4-(oxetan-3-yloxy)phenyl)benzofuran-2-carboxamide], the IC50 in test [1] is 2300 nM; in test [2] it was above 10000 nM; in test [3], 2 nM; in test [4] it was above 10000 nM.

Consider `N#CC1(NC(=O)C2(NC(=O)c3cc4ccc(-c5ccc(C6(O)CCOCC6)cc5)cc4o3)CCC(F)(F)CC2)CC1` [Example 22, N-(1-((1-cyanocyclopropyl)carbamoyl)-4,4-difluorocyclohexyl)-6-(4-(4-hydroxytetrahydro-2H-pyran-4-yl)phenyl)benzofuran-2-carboxamide], for which the IC50 in test [1] was 1800 nM; in test [2], 3100 nM; in test [3] it was 1.8 nM; in test [4] it was above 10000 nM.

Take `N#CC1(NC(=O)C2(NC(=O)c3cc4ccc(-c5ccc(C6(O)CCS(=O)(=O)CC6)cc5)cc4o3)CCC(F)(F)CC2)CC1` [Example 27, N-(1-((1-cyanocyclopropyl)carbamoyl)-4,4-difluorocyclohexyl)-6-(4-(4-hydroxy-1,1-dioxidotetrahydro-2H-thiopyran-4-yl)phenyl)benzofuran-2-carboxamide]: the IC50 was 400 nM in test [1], 2100 nM in test [2], 0.83 nM in test [3] and above 10000 nM in test [4].

As to `N#CC1(NC(=O)C2(NC(=O)c3cc4ccc(-c5ccc(N6CCOCC6=O)cc5)cc4o3)CCC(F)(F)CC2)CC1` [Example 28, N-(1-((1-cyanocyclopropyl)carbamoyl)-4,4-difluorocyclohexyl)-6-(4-(3-oxomorpholino)phenyl)benzofuran-2-carboxamide], the IC50 in test [1] is 1900 nM; in test [2] it was 2200 nM; in test [3], 1.2 nM; in test [4], above 10000 nM.

Take `N#CC1(NC(=O)C2(NC(=O)c3cc4ccc(-c5ccc6ncoc6c5)cc4o3)CCC(F)(F)CC2)CC1` [Example 32, 6-(benzo[d]oxazol-6-yl)-N-(1-((1-cyanocyclopropyl)carbamoyl)-4,4-difluorocyclohexyl)benzofuran-2-carboxamide]: the IC50 in test [1] was 3300 nM; in test [2] it was 7600 nM; in test [3], 1.9 nM; in test [4], above 10000 nM.

Consider `N#CC1(NC(=O)C2(NC(=O)c3cc4ccc(-c5ccc6c(c5)OCCO6)cc4o3)CCC(F)(F)CC2)CC1` [Example 33, N-(1-((1-cyanocyclopropyl)carbamoyl)-4,4-difluorocyclohexyl)-6-(2,3-dihydrobenzo[b][1,4]dioxin-6-yl)benzofuran-2-carboxamide], for which the IC50 in test [1] was above 10000 nM; in test [2], 2300 nM; in test [3], 2.95 nM; in test [4], above 10000 nM.

On to `CS(=O)(=O)COc1ccc(-c2ccc3cc(C(=O)NC4(C(=O)NC5(C#N)CC5)CCC(F)(F)CC4)oc3c2)cc1` [Example 98], for which, in test [3], the IC50 is 1.02 nM.

Take `COc1cc(-c2ccc3cc(C(=O)NC4(C(=O)NC5(C#N)CC5)CCC(F)(F)CC4)oc3c2)ccc1CS(C)(=O)=O` [Example 100]: in test [3], the IC50 was determined as 0.56 nM.

Consider `COc1cc(-c2ccc3cc(C(=O)NC4(C(=O)NC5(C#N)CC5)CCC(F)(F)CC4)oc3c2)ccc1OCS(C)(=O)=O` [Example 101], for which the IC50 in test [3] stood at 0.88 nM.
